The values that follow come from US12582632B2, “Inhibition of neurological injuries due to infections via administration of Butanetap and analogs thereof” (priority 2021, dated 2026).

Test [1] concerns the target APP or aSYN mRNA to IRP1 (Homo sapiens, UniProt P21399). Nature of the test: Binding of mRNA IRE to IRP1. The source says:
Therefore, the original data concerning the effects of butanetap working under all conditions is wrong. (See, e.g., Lahiri, et al., “The Experimental Alzheimer's Disease Drug butanetap [(+)-Phenserine] Lowers Amyloid-β Peptide Levels in Cell Culture and Mice”, J. Pharmacol. Ther. 320:386-396, 2007 (hereby incorporated by reference)). It only works in stressed cells, dividing cells and sick cells, e.g., those cells that have high levels of iron.
Butanetap augments the binding of APP mRNA IRE to IRP1 under high iron conditions and prevents APP from being translated excessively, restoring homeostasis. The same mechanism works for all neurotoxic aggregating proteins tested to date: Butanetap works under iron-dishomeostasis to restore homeostasis.

In test [2] the test system is immortalized Mouse Microglia (SIM-A9). Description: Gingipain cytotoxicity on microglia, AlamarBlue viability. In kind it is cell-based. As to conditions: 48 hours, between 1 and 10 nM. The method, then:
Immortalized Mouse Astrocytes—SV40T (IMA2.1), immortalized Mouse Microglia (SIM-A9) and immortalized neuroblastoma (SH-SY5Y) cells were infected for 48 hours with gingipains HRgpA and RgpB (arginine gingipains), and Kgp (lysine-specific cysteine proteinase—Lys-gingipain, KGP). After 48 hours the cells were assessed for viability with the AlamarBlue assay and the percentage of dead or alive cells versus control was plotted. […] As expected, since neither are dying, […]. […] Therefore, we expect the efficacious buntanetap dose to fight P. gingivalis infection to be the same as to treat Alzheimer's and Parkinson's disease has no impact on the microglia or neuroblastoma survival in the presence of gingipains.

The subject of test [3] is APP and its fragments. Description: APP and fragments in hippocampus of APP/PS1 transgenic AD mice. In kind it is in vivo. The source says: GAPDH and Synaptophysin were loading controls. FIG. 2 also includes a collection of graphs showing relative density of APP plotted against control and time after butanetap treatment; relative density of CTFβ plotted against control and time after butanetap treatment; relative density of CTFα plotted against control and time after butanetap treatment; Aβ42 levels in brain tissue plotted against control and time after butanetap treatment; and Aβ40 levels in brain tissue plotted against control and time after butanetap treatment. Finally, FIG. 2 also includes a Western blot showing levels of APP, NSB, CTFβ, and CTFα after butanetap treatment over time (minutes).

APP or aSYN mRNA to IRP1, sequence (P21399 whole entry): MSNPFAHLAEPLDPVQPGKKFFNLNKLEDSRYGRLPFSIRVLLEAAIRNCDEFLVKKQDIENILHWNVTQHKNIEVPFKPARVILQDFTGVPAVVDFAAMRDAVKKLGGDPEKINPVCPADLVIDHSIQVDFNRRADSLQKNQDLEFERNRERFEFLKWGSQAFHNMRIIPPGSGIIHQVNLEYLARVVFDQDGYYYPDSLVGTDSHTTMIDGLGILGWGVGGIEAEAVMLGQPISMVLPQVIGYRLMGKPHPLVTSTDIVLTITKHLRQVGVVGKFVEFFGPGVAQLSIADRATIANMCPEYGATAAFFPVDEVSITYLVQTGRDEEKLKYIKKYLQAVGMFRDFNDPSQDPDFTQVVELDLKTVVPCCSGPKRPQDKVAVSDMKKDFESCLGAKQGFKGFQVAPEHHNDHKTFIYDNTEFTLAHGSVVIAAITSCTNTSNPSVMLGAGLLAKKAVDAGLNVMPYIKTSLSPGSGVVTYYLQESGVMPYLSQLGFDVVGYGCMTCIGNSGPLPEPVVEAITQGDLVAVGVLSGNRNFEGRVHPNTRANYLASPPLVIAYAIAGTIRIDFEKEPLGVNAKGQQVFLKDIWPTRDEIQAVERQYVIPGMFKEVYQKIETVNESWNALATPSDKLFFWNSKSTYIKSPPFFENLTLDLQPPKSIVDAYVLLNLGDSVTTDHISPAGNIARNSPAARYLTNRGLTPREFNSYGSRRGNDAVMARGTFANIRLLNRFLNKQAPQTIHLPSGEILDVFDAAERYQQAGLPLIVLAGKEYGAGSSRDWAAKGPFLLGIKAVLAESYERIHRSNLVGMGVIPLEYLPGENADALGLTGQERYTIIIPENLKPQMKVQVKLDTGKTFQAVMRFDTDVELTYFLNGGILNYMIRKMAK

Consider `CN1CC[C@]2(C)c3cc(OC(=O)Nc4ccccc4)ccc3N(C)C12` (stereo partly drawn) [butanetap, (3aR)-1,3a,8-trimethyl-1,2,3,3a,8,8a-hexahydropyrrolo[2,3-b]indol-5-yl phenylcarbamate], for which, in test [1] (under high iron conditions), the “binding of APP mRNA IRE to IRP1” value was “augments”. Further, the “binding of APP or aSYN mRNA to IRP1” value in test [1] (under iron or metal-homeostasis) is listed as “does not increase”. Also, the “microglia survival in the presence of gingipains” value in test [2] was “no impact”. The “APP and its fragments (all related peptides) in hippocampus” value in test [3] (FIG. 2) is on record as “reduced”. In addition, in test [3] (hippocampus), the “duration of reduction of APP and related peptides after the last dose” value is on record as “at least 9 hours”.
